{"source": "paper PMC11219860", "about": "“A chemogenetic approach for dopamine imaging with tunable sensitivity” (Nature Communications, 2024)", "key": {"dLight1.3b": {"test_system": "dLight1.3b", "test": "Multi-fiber photometry of dLight1.3b across brain regions", "assay_type": "in vivo, mouse", "conditions": "mean ± SEM", "excerpt": "We used a light emitting diode (LED, M470L5 Thorlabs) at the 470-nm central wavelength for excitation of dLight1.3b. To achieve stable continuous operation, LEDs were run at 80% of maximal output power corresponding to an excitation power of ~1 mW/mm^2 per fiber channel. LED light was collimated with the 16 mm condenser lens (ACL25416U-A, Thorlabs). A microscope objective (TL4x-SAP; Thorlabs) coupled excitation light into the respective array of 12-fibers (Sylex). A dichroic beamsplitter (F58-486 dual line, AHF) coupled the excitation light into the objective (TL4x-SAP, Thorlabs) and transmitted the fluorescence in the dLight1.3b emission spectral window. To separate fluorescence signals from residuals of the excitation light and to minimize auto-fluorescence generated in a broader spectral range we used an emission filter (525/50 nm, F37-516, AHF, for dLight1.3b). To image the end face of the fiber array onto the camera we used a 100-mm focal tube lens (TTL100-A, Thorlabs). […]\nFluorescence signals were expressed as percentage ΔF/F0 relative to the fluorescence baseline. The fluorescence baseline was defined as the minimal level of the signal after subtracting the auto-fluorescence baseline, that is the level of fluorescence estimated prior to the mouse connection. Because in our experiment we wanted to estimate the slow DETQ decay times, we fitted the second-order polynomial trend to the recorded fluorescence signals. […] In all measured traces we visually verified the quality of fit. […] To analyse the ΔF/F0 temporal dynamics at multiple temporal scales separately, we decomposed the fluorescence traces with the wavelet transform (cwt function, MATLAB). We separately analysed measurement traces (30 min before and 30 min after the injection). […] After we compared across independent channels and mice contribution of various temporal scales (in the range of 1−30 seconds) to the recorded ΔF/F0. […] To compare the temporal scales recorded before and after the DETQ injection, during the same session, we used a non-parametric Wilcoxon signed-rank test."}, "[1]": {"test_system": "dLight1.3b-expressing HEK293T sniffer cells on primary DArgic neurons", "test": "DA release imaging from cultured DArgic neurons with dLight1.3b sniffer cells", "assay_type": "cell-based, mouse", "conditions": "DETQ 200 nM added to 4-AP perfusion", "description": "Primary DA (DA) neurons were grown on a layer of cortical astrocytes. The astrocytes were first prepared from P0-P2 C57BL6 mice, grown in T75 flask and then seeded on collagen/poly-L-lysine coated 15 mm glass coverslips at a concentration of 100,000 cells/ml. The cells were allowed to grow until close to confluence before the seeding of neurons. Primary DArgic neurons were prepared and cultured from P0-P2 mouse pups using a previously described protocol. Briefly, the ventral midbrain of P0-P2 pups was dissected from DAT^IREScre x Ai9 mice in which DA neurons expressed the red fluorescent protein tdTomato. These were produced by crossing DAT^IREScre mice (catalog #006660, Jackson Labs[31]) to Ai9/tdTomato mice (catalog #007905, Jackson Labs[32]). Both of these lines were on a C57BL/6 J background. Midbrain cells were seeded at a concentration of 240,000 cells/ml on top of the astrocyte monolayer and allowed to grow for 10 days (10 DIV). Two days before imaging, expression of dLight1.3b was induced in stable HEK cells with doxycycline. One day prior to imaging, HEK cells were lifted using trypsin, and 150,000 HEK cells were seeded on top of 10 DIV-cultured neurons in doxycycline-supplemented neuronal medium. Imaging was performed on a confocal microscope (Nikon A1 HD25) using a 40X dry objective and a 488 nm laser to excite dLight1.3b and a 546 nm laser to activate tdTomato and identify DA neurons. On the day of imaging, physiological saline containing drugs at the specified concentration ([…], Sigma; SCH23390, Sigma; DETQ, Enamine) were applied on the culture using a computer-controlled perfusion system (Automate system). A field containing one or more DA neurons was selected based on the tdTomato signal. […]\nEvent detection was performed using a thresholding algorithm adapted from[80]. In brief, the recorded field of view was divided into square ROIs of 55 um x 55 um size. […] A rolling standard deviation was calculated with the same window size. Events were defined as timepoints at which the fluorescence intensity reading exceeds the averaged intensity by 5 standard deviations."}}}
{"smiles": "C[C@H]1c2cccc(C(C)(C)O)c2C[C@H](CO)N1C(=O)Cc1c(Cl)cccc1Cl", "note": "[DETQ, 2-(2,6-dichlorophenyl)-1-((1S,3R)-3-(hydroxymethyl)-5-(2-hydroxypropan-2-yl)-1-methyl-3,4-dihydroisoquinolin-2(1H)-yl)ethan-1-one]", "values": [{"measurement": "peak ΔF/F0 fluorescence", "setting": "dLight1.3b; CPu", "result": "28.3 ± 6.27", "unit": "%"}, {"measurement": "peak ΔF/F0 fluorescence", "setting": "dLight1.3b; NAc", "result": "22.3 ± 6.11", "unit": "%"}, {"measurement": "peak ΔF/F0 fluorescence", "setting": "dLight1.3b; PFC", "result": "6.8 ± 2.39", "unit": "%"}, {"measurement": "number of detected phasic DA release events", "setting": "[1]", "result": "increased"}, {"measurement": "sensor baseline signal (tonic DA)", "setting": "[1]", "result": "long-lasting increase"}]}
